Broadly, the MIC is the lowest concentration that inhibits growth of the organism. A word on the MBC: it is the smallest concentration meeting the test's criterion for killing.

One series relates to MRSA strain NRS 384. Kind of series: Methicillin resistance development under stepwise methicillin exposure. The conditions noted are these: Staphylococcus aureus, read-out: Methicillin MIC after adaptation, NRS 384. The class given is cell-based. An excerpt: ALAFAC and Methicillin Resistance Development. Experiments were designed to test the impact of ALAFAC on the adaptation of MRSA to methicillin in liquid cultures, and to test ALAFAC's potential to inhibit resistance increase during antibiotic pressure. […]

A further series relates to Staphylococcus aureus. The series can be described thus: Minimal bactericidal concentration (MBC) from MIC plates. It is filed as cell-based. The conditions noted are these: antibiotic alone. From the text:
The MBC was defined as the lowest concentration of antimicrobials yielding colony counts <0.1% (3 log10 reduction) of the initial inoculum (as determined by colony counts from the growth control well immediately after inoculation) as described.

The subject of another series is Acinetobacter baumanni. Kind of series: MIC by broth microdilution, antibiotics with and without ALAFAC. The conditions noted are these: agent alone. The class given is cell-based. The protocol: (§1) Methodology: Minimal inhibitory concentrations (MICs) were determined in 96-well microtiter plates using the microdilution method according to approved standards of the CLSI except that Todd-Hewitt medium supplemented with 0.5% yeast extract, which yields reproducible MIC results was used as the test medium for S. pneumoniae. For the remaining species Mueller-Hinton medium was used as indicated by the CLSI standard. Each well contained two-fold dilutions of antibiotic, was seeded with a final bacterial concentration of 10^5 CFU/mL, and was incubated for 18 h at 37° C. in a Synergy II microplate reader (Biotek, Winooski, Vt.) where the OD600 was recorded every 5 minutes to monitor bacterial growth. The MIC was defined as the lowest concentration of antimicrobial agent solution at which no increase in OD600 was detected.
(§2) In vitro susceptibility tests. Minimal inhibitory concentrations (MICs) were determined in 96-well microtiter plates using the microdilution method according to approved standards of the CLSI except that Todd-Hewitt medium supplemented with 0.5% yeast extract, which yields reproducible MIC results was used as the test medium for S. pneumoniae. MICs for A. baumanni, and M. catarrhalis were determined in MH media. Two-fold dilutions of a starting antibiotic concentration was added in triplicate into microtiter plate wells (in 96-well plates), were seeded with a final bacterial concentration of ˜10^5 colony forming units (CFU)/mL, and was incubated for 18 h in ambient air at 37° C. in a Synergy II microplate reader (Biotek, Winooski, Vt.) where the OD600 was recorded every 5 minutes to monitor bacterial growth. The MIC was defined as the lowest concentration of antimicrobial agent solution at which no increase in OD600 was detected.

In series [1] the test system is Moraxella catarrhalis. Described as above. As to conditions: agent alone. It is filed as cell-based. The protocol: as §1, §2
For a further series, the system named is S. pneumoniae D39. Kind of series: Autolysis by optical density at 600 nm. It is filed as cell-based, Streptococcus pneumoniae. An excerpt: Most agents that kill pneumococci, including […] and cell wall-active anti-bacterials activate the major autolysin LytA to induce lysis of the bacteria, which can easily be detected by eye as a clearing of the bacterial suspension upon treatment and measured by a decrease in OD600 nm over time. In comparison, antibiotics acting on bacterial DNA, RNA, or protein synthesis show reduced, though still significant, levels of cell lysis. However, during our combination treatments with […] and gentamicin above we observed no detectable lysis. […] The lack of lysis from combination treatment may be beneficial for the host in reducing the host inflammation associated with bacterial components after lysis.

A further series deals with NRS 384 Staphylococci. The series can be described thus: Intracellular pH measurement (BCECF-AM). The class given is cell-based, Staphylococcus aureus. The conditions noted are these: ALAFAC 100 μg/mL (6 μM), RuR 30 μM, Amiloride 1 mM. An excerpt: Intracellular pH measurement. A reported protocol for intracellular pH (pHi) measurement was modified and optimized for S. aureus by testing the effect of various dye concentrations and staining times on the measured fluorescence of S. aureus isolate NRS 384 grown to mid-log phase. Cell samples were subjected to increasing concentrations of the membrane-permeant acetoxymehtyl (AM) ester derivative of the dual-excitation ratiometric pH indicator dye BCECF (2′,7′-bis-(2-carboxyethyl)-5-(and-6)-carboxyfluorescein), for 30 minutes at 30° C. Fluorescence was measured as a ratio of fluorescence at 530 nm with dual wavelength excitation at 490 and 440 nm and calibration curves were established for each independent experiment. After testing a number of loading concentrations we observed that the fluorescence ratios remains generally constant when concentrations above 20 μM was used. Therefore 25 μM BCECF-AM was used for all experiments. The optimized staining time, 30 minutes, was determined using the same criteria and was used for all experiments. After loading, the cells were washed twice in PBS by centrifugation and the resulting pellet was resuspended in PBS to the original volume and ALAFAC and ALAFAC/antibiotic combinations were added. CCCP was added as a positive control. CCCP is a lipophilic weak acid that is soluble in the lipid domain of the membrane in both the protonated and deprotonated form. This allows it to act as a protonophore causing an influx of H^+ into the cytoplasm, dissipating both the electrical potential and the H^+ gradient across the inner membrane. For each experiment calibration was performed where cells were resuspended in high [K^+] buffers at different pH values ranging from 6.5 to 8.0.

For series [2], the system named is Staphylococci. The conditions noted are these: concentrations up to 5 mg/ml; cited from earlier work.
The subject of series [3] is Staphylococci. The series can be described thus: Membrane integrity assays (propidium iodide, ATP, A260 leakage). The class given is cell-based, Staphylococcus aureus. As to conditions: S. aureus; data not shown. How it is done:
Membrane Integrity Assays. To evaluate the effect of […] on membrane integrity, Staphylococci were exposed to […] and antibacterial agents at indicated concentrations for 50 minutes at 37° C. in PBS. The detergent Triton X-100 (0.1%) was used as a control, known to cause extensive membrane rupture. After treatment the leakage of soluble components (DNA RNA and protein) were measured from supernatant obtained after centrifugation of the bacterial suspension at 13,000×g for 5 min, by measuring the absorbance at 260 nm in a BioTek Synergy 2 plate reader with the Take3 microdrop addition (Biotek). Cellular release of the small molecule ATP (MW 507) that was measured from the same supernatants using the ATP determining kit (Invitrogen), which measures the luminescence of oxyluciferin produced from the oxidation of luciferin by luficerase, a process that requires ATP degradation. […] Where applicable, independent readings were also taken in the presence of antibacterial agents alone to enable corrections for potential background leakage.

The subject of series [4] is Moraxella catarrhalis. As to conditions: 2 mg/ml; cited from earlier work.
For a further series, the system named is healthy human cells. The conditions noted are these: cited from earlier work.
The next series concerns Bacillus subtilis. The conditions noted are these: concentrations up to 5 mg/ml; cited from earlier work.
[5] abbreviates: sublethal ALAFAC (50 μg/ml), low gentamicin, alone or combined.

Values after ≈ are worked out from the molar mass of the structure shown. Like-named read-outs stand apart in the source and are kept apart here.

Take `COc1cccc(OC)c1C(=O)N[C@@H]1C(=O)N2[C@@H]1SC(C)(C)[C@@H]2C(=O)O` [Methicillin, methicillin]: the MIC is 512 µg/mL (≈ 1350 µM) in the series on MRSA strain NRS 384 (8 cycles with increasing methicillin, no ALAFAC) and 64 µg/mL with MRSA strain NRS 384 (10 cycles in methicillin plus ALAFAC 100 μg/mL (6 μM), MIC tested without ALAFAC). Also, the MBC in the series on Staphylococcus aureus (Staphylococcus aureus, NRS1, S. aureus NRS1, read-out: MBC) was above 256 µg/mL; in the series on Staphylococcus aureus (Staphylococcus aureus, NRS70, S. aureus NRS70, read-out: MBC) it was 128 µg/mL (≈ 336 µM); in the series on Staphylococcus aureus (Staphylococcus aureus, NRS71, S. aureus NRS71, read-out: MBC), above 256 µg/mL; in the series with Staphylococcus aureus (Staphylococcus aureus, NRS100, S. aureus NRS100, read-out: MBC), above 256 µg/mL; in the series with Staphylococcus aureus (Staphylococcus aureus, NRS123, S. aureus NRS123, read-out: MBC), above 256 µg/mL; in the series with Staphylococcus aureus (Staphylococcus aureus, NRS384, S. aureus NRS384, read-out: MBC), above 256 µg/mL. Further, the MBC in the series with Staphylococcus aureus (Staphylococcus aureus, S. aureus 11090306, read-out: MBC) is 64 µg/mL (≈ 168 µM); in the series with Staphylococcus aureus (Staphylococcus aureus, S. aureus 10307570, read-out: MBC), above 256 µg/mL.

Regarding `CC1(C)S[C@@H]2[C@H](NC(=O)Cc3ccccc3)C(=O)N2[C@H]1C(=O)O` [Penicillin, penicillin G], the MIC with Acinetobacter baumanni (A. baumanni AB307) was above 100 µg/mL; with Acinetobacter baumanni (A. baumanni AB979) it was above 100 µg/mL; in the series with Acinetobacter baumanni (A. baumanni AB979, listed as penicillin) it was “exceeded 100 μg/ml”; in the series with Acinetobacter baumanni (Acinetobacter, A. baumanni AB307, read-out: MIC) it was above 100 µg/mL; in the series with Moraxella catarrhalis [1] (M. catarrhalis 7169 (MC7169)) it was above 50 µg/mL; with Moraxella catarrhalis [1] (M. catarrhalis BC8 (MCBC8)) it was above 50 µg/mL. Also, the MIC result in the series on Moraxella catarrhalis [1] (M. catarrhalis BC8 (MCBC8), listed as penicillin) was “exceeded 50 μg/ml”; in the series on Moraxella catarrhalis [1] (Moraxella catarrhalis, M. catarrhalis 7169 (MC7169), read-out: MIC), above 50 µg/mL.

Consider gentamicin, for which the MIC in the series on Acinetobacter baumanni (A. baumanni AB307) came to 36 µg/mL; in the series on Acinetobacter baumanni (A. baumanni AB979), 2.5 µg/mL; in the series with Moraxella catarrhalis [1] (M. catarrhalis 7169 (MC7169)), 25 µg/mL; in the series on Moraxella catarrhalis [1] (M. catarrhalis BC8 (MCBC8)), 25 µg/mL. In the series with S. pneumoniae D39 (setting [5]), the “Autolysis (OD600)” value is “failed to lyse”. Further, the MBC was above 256 µg/mL in the series with Staphylococcus aureus (S. aureus NRS1) and 16 µg/mL against Staphylococcus aureus (S. aureus NRS384).

B1: ALAFAC: non-covalent complex of alpha-lactalbumin and fatty acid (oleic acid); labeled HAMLET or HL in drawings and tables (protein, UniProt P00709 20-142, looked up)
Alpha-lactalbumin: KQFTKCELSQLLKDIDGYGGIALPELICTMFHTSGYDTQAIVENNESTEYGLFQISNKLWCKSSQVPQSRNICDISCDKFLDDDITDDIMCAKKILDIKGIDYWLAHKALCTEKLEQWLCEKL
modifications: complexed with oleic acid
Take B1: the “Transmembrane proton gradient (intracellular pH)” value in the series with NRS 384 Staphylococci is recorded as “effectively dissipated the proton gradient”. In addition, the Bactericidal activity entry with Staphylococci [2] and in the series with Bacillus subtilis was “no detectable activity” in each case. In addition, the “Membrane damage (propidium iodide staining; leakage of ATP, DNA, RNA)” value with Staphylococci [3] was “no membrane damage”. Further, the “Autolysis (OD600)” value in the series with S. pneumoniae D39 (ALAFAC alone at a lethal concentration (250 μg/ml)) was “rapid lysis”; in the series with S. pneumoniae D39 (setting [5]), “small decrease in optical density”. Also, in the series on Moraxella catarrhalis [4], the Reduction of bacteria entry is “less than 90%”. For the same molecule, the Toxicity entry in the series on healthy human cells is given as “no toxicity”.

The record behind these values is patent publication US9526766B2, “Potentiation of antibiotic treatment with a protein-lipid complex” (priority 2012, dated 2016).
